Results as given in patent US8236963B2, “Tricyclic spiro derivatives as CRTH2 modulators” (Merck Serono SA, priority 2005, dated 2012).

What was measured:
[1] = system: DNFB-induced ear swelling; test: CHS model (contact hypersensitivity to DNFB, ear swelling); format: in vivo, Balb/c mice; details: 60 mg/kg; po; 30 min before DNFB challenge; ear thickness on day 6
From the text: The contact hypersensitivity model can be used to evaluate the therapeutic efficacy of spiro derivatives on skin inflammation mediated by T cells. The model is well established for characterization of compound for dermatological indications like psoriasis and allergic contact dermatitis (Xu et al. J Exp Med. 183, 1001-12, 1996). It involves a sensitization phase and a subsequent challenge with an antigen (DNFB, 2,4-dinitrofluorbenzene). […] The edema can be measured by caliper at the challenged site (ear of the mice). Intravenous or oral administration with 10% Labrasol as vehicle of the compounds of the invention 30 min before challenge with DNFB results in a decrease of the swelling and therefore reduces inflammation in the skin compared to positive controls treated with vehicle only before challenge with the antigen. Negative control mice are not sensitized, but challenged with DNFB, therefore no T cell dependent inflammation occurs and no edema is formed. Balb/c mice were obtained from CharlesRiver (Calcco, Italy). […]
Mice were sensitized and challenged to elicit CHS to DNFB. […] Ear thickness was monitored on day 6 (1 day after challenge) using a caliper (Mitutoyo, Milan, Italy). Ear swelling was calculated as ((Tn−T5)right ear−(Tn−T5)left ear), wherein Tn and T5 represent values of ear thickness at day n of investigation and day 5 prior to challenge, respectively.

[2] = system: DK-PGD2-induced vascular leakage; test: Model of DK-PGD2-induced vascular leakage in mice; format: in vivo, Balb/c mice; details: Mus musculus, 1.5 h; dose of 30 mg/kg; 30 min before DK-PGD2 challenge; Evans blue extravasation
Method: This test is described in Takeshita et al. (2004). Balb/c mice (Elevage Janvier) (8 week old) received an intradermal injection of DK-PGD2 (10 μg in 30 μl) on their shaved backs and an intravenous injection of Evans blue solution (25 mg/kg) 30 min after administration of the test molecules (spiro derivative). Ninety minutes after the challenge, the animals were sacrificed. The skin of the back was removed and blood was sampled. The extravasated dye (punch diameter: 5 mm) was extracted by 0.2 ml of formamide and was quantified by fluorescence (E1: 585 nm, E2: 660 nm). The Evans Blue extravasation ratio was expressed as the following: skin/serum×1000.

CRTH2 [3] = target: T1, CRTH2 (Homo sapiens, UniProt Q9Y5Y4); test: Determination of Ki (radioligand binding assay, equilibrium competition against [3H]PGD2); parameters: expressed in transfected cells; host or cells: HEK293 (EBNA) cells, membrane preparation; details: average of at least three independent dose response experiments
T1 sequence (Q9Y5Y4 1-395): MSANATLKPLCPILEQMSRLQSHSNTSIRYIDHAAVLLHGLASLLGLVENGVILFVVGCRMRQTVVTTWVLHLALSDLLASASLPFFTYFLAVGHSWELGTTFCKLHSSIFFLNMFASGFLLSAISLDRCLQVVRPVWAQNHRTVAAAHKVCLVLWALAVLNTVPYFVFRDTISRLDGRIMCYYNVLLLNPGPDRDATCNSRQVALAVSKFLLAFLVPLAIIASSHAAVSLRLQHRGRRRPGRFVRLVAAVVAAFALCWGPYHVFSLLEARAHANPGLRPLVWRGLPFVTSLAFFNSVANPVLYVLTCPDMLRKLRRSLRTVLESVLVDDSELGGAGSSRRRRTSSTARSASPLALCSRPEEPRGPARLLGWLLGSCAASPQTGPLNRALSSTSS
Method: The inhibitory activity can be investigated by a radioligand binding assay (Sawyer et al., Br. J. Pharmocol 2002, 137, 1163-72). The radioligand binding assay was performed at room temperature in binding buffer (10 mM HEPES/KOH pH […], with protease inhibitor cocktail tablets), containing 1.5 nM [^3H]PGD2 (Amersham, 156 Cie/mmol), and 10 μg of hCRTH2 HEK293 (EBNA) cell membrane protein in a final volume of 100 μl in 96 well plates (Corning, USA). Non-specific binding was determined in the presence of 1 μM PGD2 (Cayman, USA). Competing spiro-indolinones were diluted in dimethylsulphoxide so that the total volume of dimethylsulfoxide was kept constant at 1% dimethylsulphoxide (Me2SO) Serial dilutions of 100 μM and […] were prepared. 10 μl each of these spiro-indolinone stock solutions were added. Incubation (60 min at room temperature) was terminated by rapid filtration through 96 wells hydrophobic GF/C Unifilter plates (Whatman, USA). Filters were washed twice with 250 μl of Tris-HCl pH 7.4, 10 mM MnCl2, and residual radioligand bound to the filters was mixed to 100 μl of liquid scintillation cocktail (Optiphase Supermix, Perkin Elmer, USA) and binding activity was determined by counting residual radioligand using a 1450 Micro-beta scintillation counter (Wallac, UK). The following representative compounds were tested. All inhibited the binding of PGD2 to CRTH2 by more than 70%. • (1′-benzyl-5-chloro-2,2′,5′-trioxospiro[indole-3,3′-pyrrolidin]-1(2H)-yl)acetic acid • (1′-benzyl-5-fluoro-2,2′,5′-trioxospiro[indole-3,3′-pyrrolidin]-1(2H)-yl)acetic acid • 4-(1′-allyl-5-chloro-2,2′,5′-trioxospiro[indole-3,3′-pyrrolidin]-1(2H)-yl)butanoic acid • [5-chloro-1′-(2-methoxyethyl)-2,2′,5′-trioxospiro[indole-3,3′-pyrrolidin]-1(2H)-yl]acetic acid • 4-(1′-benzyl-5-chloro-2,2′,5′-trioxospiro[indole-3,3′-pyrrolidin]-1(2H)-yl)butanoic acid • (1′-benzyl-5-methoxy-2,2′,5′-trioxospiro[indole-3,3′-pyrrolidin]-1(2H)-yl)acetic acid • [5-fluoro-1′-[(2-methoxyethoxy)methyl]-2,2′,5′-trioxospiro[indole-3,3′-pyrrolidin]-1(2H)-yl]acetic acid • 4-(1′-allyl-5-fluoro-2,2′,5′-trioxospiro[indole-3,3′-pyrrolidin]-1(2H)-yl)butanoic acid • 4-(1′-benzyl-5-fluoro-2,2′,5′-trioxospiro[indole-3,3′-pyrrolidin]-1(2H)-yl)butanoic acid
Ki values were determined by equilibrium competition binding experiments against [^3H]PGD2. Ki values were calculated from the formula below and represent the average of at least three independent dose response experiments. The Ki values give the ligand concentrations necessary to inhibit 50% of the binding of [^3H]PGD2 to CRTH2. Ki=IC50/(1+[Concentration of Ligand]/Kd)]
All experiments were performed in 96 well plates, in a final volume of 100 μl according to the above described filtration assay. The concentration of membranes and 3 [H]PGD2, as well as the positive and negative controls were identical to the conditions described above.

CRTH2 [4] = target: T1, CRTH2; test: Radioligand binding assay ([3H]PGD2, hCRTH2 HEK293 (EBNA) cell membranes); parameters: expressed in transfected cells; host or cells: HEK293 (EBNA) cells, membrane preparation; details: 1.5 nM [3H]PGD2, 10 μg hCRTH2 HEK293 (EBNA) membrane protein, 60 min at room temperature
From the text: Human CRTH2 cDNA was amplified by PCR using a human urinary bladder cDNA library as a template and specific primers containing HindIII and BamHI restriction sites for cloning into the pCEP4 vector (Invitrogen). The vector construction is described in detail in Sawyer et al., Br. J. Pharmocol 2002, 137, 1163-72. The nucleotide sequence of the cloned cDNA was identical the previously reported hCRTH2 sequence (Nagata et al, 1999, J. Immunol. 162, 1278-1286).
HEK293 (EBNA) cells were transfected with the pCEP4-hCRTH2 construct using the calcium phosphate technique. Cells were maintained in culture at 37° C. in an atmosphere of 5% CO2 in Dulbecco's modified Eagle's F12 medium (Invitrogen), containing 10% heat-inactivated foetal calf serum (TerraCell International, Canada), 2 mM Glutamine, 100 units/ml of penicillin and 100 μg/ml streptomycin (Invitrogen). 48 hours after the transfection, cells were grown in presence of 300 μg/ml of Hygromycin B (Invitrogen) for 4 weeks and antibiotic resistant cells were amplified for cell membrane preparation.
Adherent HEK293 (EBNA) cells expressing hCRTH2 were cultured in 225 cm^2 cell culture flasks (Corning, USA) in 30 ml of medium. After two rinses of phosphate buffered saline (PBS), cells were harvested in 10 ml of PBS containing 1 mM EDTA, centrifuged at 500×g for 5 min at 4° C. and frozen at −80° C. The pellet was re-suspended in 50 mM Tris-HCl, pH 7.4, 2 mM EDTA, 250 mM Sucrose, containing protease inhibitor cocktail tablets, (Complete EDTA-free, Roche, Germany) and incubated 30 min at 4° C. Cells were disrupted by nitrogen cavitation (Parr Instruments, USA) at 4° C. (800 p.s.i. for 30 min), and centrifuged at 500×g for 10 min at 4° C. Pellet containing nuclei and cellular debris was discarded and supernatant was centrifuged 60 min at 4° C. at 45000×g. Membrane pellet was re-suspended in storage buffer (10 mM HEPES/KOH pH 7.4, 1 mM EDTA, 250 mM sucrose, protease inhibitor cocktail tablets) using Dounce homogenization and frozen in liquid nitrogen, and stored at −80° C.
The inhibitory activity can be investigated by a radioligand binding assay (Sawyer et al., Br. J. Pharmocol 2002, 137, 1163-72). The radioligand binding assay was performed at room temperature in binding buffer (10 mM HEPES/KOH pH […], with protease inhibitor cocktail tablets), containing 1.5 nM [^3H]PGD2 (Amersham, 156 Cie/mmol), and 10 μg of hCRTH2 HEK293 (EBNA) cell membrane protein in a final volume of 100 μl in 96 well plates (Corning, USA). Non-specific binding was determined in the presence of 1 μM PGD2 (Cayman, USA). Competing spiro-indolinones were diluted in dimethylsulphoxide so that the total volume of dimethylsulfoxide was kept constant at 1% dimethylsulphoxide (Me2SO) Serial dilutions of 100 μM and […] were prepared. 10 μl each of these spiro-indolinone stock solutions were added. Incubation (60 min at room temperature) was terminated by rapid filtration through 96 wells hydrophobic GF/C Unifilter plates (Whatman, USA). Filters were washed twice with 250 μl of Tris-HCl pH 7.4, 10 mM MnCl2, and residual radioligand bound to the filters was mixed to 100 μl of liquid scintillation cocktail (Optiphase Supermix, Perkin Elmer, USA) and binding activity was determined by counting residual radioligand using a 1450 Micro-beta scintillation counter (Wallac, UK). The following representative compounds were tested. […]

SMILES	reduction in ear swelling [1]	inhibition in vivo at 30 mg/kg [2]	Ki (CRTH2 [3])	melting point	inhibition (CRTH2 [4])
O=C(O)CN1C(=O)[C@]2(CC(=O)N(Cc3cccc(Cl)c3)C2=O)c2cc(Cl)ccc21 [Compound 83, (3S)-[5-chloro-1′-(3-chlorobenzyl)-2,2′,5′-trioxospiro[indole-3,3′-pyrrolidin]-1(2H)-yl]acetic acid]	40%	77%	–	–	–
O=C(O)CN1C(=O)C2(NC(=O)N(Cc3cc(Cl)ccc3F)C2=O)c2cc(Cl)ccc21 (stereo not shown) [Compound 105, [5′-chloro-1-(5-chloro-2-fluorobenzyl)-2,2′,5-trioxospiro[imidazolidine-4,3′-indol]-1′(2′H)-yl]acetic acid]	55%	60%	16 nM	–	–
Cc1noc(-c2ccccc2)c1CN1CC2(CC1=O)C(=O)N(CC(=O)O)c1ccc(Cl)cc12 (stereo not shown) [Compound 114, [5-chloro-1′-[(3-methyl-5-phenylisoxazol-4-yl)methyl]-2,5′-dioxospiro[indole-3,3′-pyrrolidin]-1(2H)-yl]acetic acid]	–	44%	3.4 nM	–	–
O=C(O)CN1C(=O)C2(CC(=O)N(Cc3ccccc3F)C2)c2cc(Cl)ccc21 (stereo not shown) [Compound 115, [5-chloro-1′-(2-fluorobenzyl)-2,5′-dioxospiro[indole-3,3′-pyrrolidin]-1(2H)-yl]acetic acid]	–	45%	140 nM	–	–
O=C(O)CN1C(=O)C2(CC(=O)N(Cc3cc(Cl)ccc3F)C2)c2cc(Cl)ccc21 (stereo not shown) [Compound 116, [5-chloro-1′-(5-chloro-2-fluorobenzyl)-2,5′-dioxospiro[indole-3,3′-pyrrolidin]-1(2H)-yl]acetic acid]	–	51%	22 nM	–	–
O=C(O)CN1C(=O)C2(CC(=O)N(Cc3ccccc3)C2=O)c2cc(Cl)ccc21 (stereo not shown) [Example 12, (1′-Benzyl-5-chloro-2,2′,5′-trioxo-spiro[indole-3,3′-pyrrolidin]-1-yl)acetic acid]	–	–	–	205 to 207 °C	> 70%
